Laboratory results published in patent US20240197700A1, “Methods and Compositions for Treating Lysosomal Storage Disorders” (Sanford Health, priority 2021, published 2024).
“Also recorded” adds a separate entry of the source.

System: tripeptidyl peptidase 1 (TPP1)
Assay: TPP1 enzyme activity in MEF lysates
Format: cell-based, mouse
Experimental: Treatment with AF38469 increases PPT1 and TPP1 enzyme activity in Batten disease mouse embryonic fibroblasts. Since AF38469 increases the expression of lysosomal genes including the PPT1 and TPP1 enzymes, we asked whether AF38469 increases the overall activity levels of these enzymes in cellulo. Wild type (WT) and mutant cells were treated with vehicle or AF38469 (40 nM). Cells were plated on day 0 and dosed with drug-containing media on DIV3 and DIV5. Cells were lysed, and protein quantification and enzyme activity assay were performed on DIV7. Data was analyzed with GraphPad Prism™. Two-way ANOVA. Mean±S.E.M. Tukey's multiple comparisons test. *p<0.05, **p<0.01, ***p<0.001, ****p<0.0001. Palmitoyl-protein thioesterase 1 (PPT1) is the lysosomal enzyme mutated in CLN1 disease and removes thioester-linked fatty acyl groups from modified cysteines of substrate proteins. Tripeptidyl peptidase 1 (TPP1) is the lysosomal enzyme mutated in CLN2 disease and has broad substrate specificity against various proteins degraded in the lysosome after cleavage.
Since LM11A-31 stimulates the nuclear translocation of transcription factors responsible for lysosome biogenesis, we asked whether LM11A-31 increases the overall activity levels of lysosomalenzymes in cellulo. […] Wild type (WT) and mutant cells were treated with vehicle or LM11A-31 (100 nM). Cells were plated on day 0 and dosed with drug-containing media on DIV3 and DIV5. Cells were lysed, and protein quantification and enzyme activity assay were performed on DIV7. Data was analyzed with GraphPad Prism™. Two-way ANOVA. Mean±S.E.M. Tukey's multiple comparisons test. *p<0.05, **p<0.01, ***p<0.001, ****p<0.0001. […] Palmitoyl-protein thioesterase 1 (PPT1) is the lysosomal enzyme mutated in CLN1 disease and removes thioester-linked fatty acyl groups from modified cysteines of substrate proteins. Tripeptidyl peptidase 1 (TPP1) is the lysosomal enzyme mutated in CLN2 disease and has broad substrate specificity against various proteins degraded in the lysosome after cleavage. Mutations in the CTSD gene, encoding cathepsin d, a lysosomal protease that is involved in the recycling and degradation, is a known cause of Cln10 disease.
Since semaglutide improves lysosomal health and function across diverse cell models of lysosomal storage disorder, we asked whether the function of the lysosomes was improved. […] Additionally, a combination of semaglutide and AF38469, a sortilin inhibitor, increased overall levels of activity for both enzymes in cell lysates. Wild type (WT) and mutant cells were treated with vehicle or semaglutide (100 nM) or AF38469 (40 nM) and semaglutide (100 nM). Cells were plated on in vitro day 0 and dosed with drug-containing media on DIV3 and DIV5. Cells were lysed, and protein quantification and enzyme activity assay were performed on DIV7. Data was analyzed with GraphPad Prism™. Two-way ANOVA. Mean±S.E.M. Tukey's multiple comparisons test. *p<0.05, **p<0.01, ***p<0.001, ****p<0.0001. […] (FIG. 20A). […] Levels of TPP1 enzyme activity in Cln2^R207X were not altered by treatment of semaglutide, as was expected given the lack of a functional TPP1 protein in this model (FIG. 20B). […] Levels of TPP1 enzyme activity in Cln2^R207X were not altered by treatment of AF38469 and semaglutide, as was expected given the lack of a functional TPP1 protein in this model. n=5 wells per treatment (FIG. 20D).

Q: How did the TPP1 enzyme activity (LM11A-31 100 nM, wild type and Cln3^Δex7/8 MEFs, DIV7) turn out when `CC[C@H](C)[C@H](N)C(=O)NCCN1CCOCC1` [LM11A-31, N-[2-(morpholin-4-yl)ethyl]-L-isoleucinamide] was run?
A: significantly increased

Q: Which results are given for `Cc1cccc(NC(=O)c2ccc(C(F)(F)F)cc2C(=O)O)n1` [AF38469, 2-((6-methylpyridin-2-yl)carbamoyl)-5-(trifluoromethyl)benzoic acid]?
A: TPP1 enzyme activity (AF38469 40 nM, Cln2^R207X MEFs): not altered; TPP1 enzyme activity (AF38469 40 nM, wild type, Cln3^Δex7/8, Cln6^nclf, Cln11^−/− MEFs, DIV7): increased the overall levels of activity; also recorded: significantly increased

Q: With semaglutide as the molecule, how does the TPP1 enzyme activity (semaglutide 100 nM, Cln2^R207X MEFs) read?
A: not altered

Q: What about the TPP1 enzyme activity (semaglutide 100 nM, wild type, Cln3^Δex7/8 MEFs, DIV7) of the same molecule?
A: significantly increased
